Experimental data: patent US20250073209A1, “COVALENT TARGETING OF RhoA FOR CANCER THERAPY” (The University of Hong Kong, priority 2023, published 2025)

How the values were obtained:
[1] = system: HCT116, HT29 and SW620 cells; test: Immunoblotting of cell cycle checkpoint proteins; type: cell-based, human; details: HCT116, HT29 and SW620, 24 h
Description: Anti-RhoA (#2117), anti-GAPDH (#2118), anti-phosphoMLC (#3671), anti-MLC (#3672), anti-FLAG (#8146), anti-GFP (#2956), and anti-GST (#2624) were purchased from Cell Signaling Technology. Cells were washed with PBS and then harvested using cell lysis buffer (1% Triton X100, 10 mM beta glycerol phosphate, 10 mM sodium pyrophosphate, 40 mM HEPES, 4 mM EDTA, pH7.4) with 4% protease/phosphatase inhibitor cocktail (Pierce). Protein samples were quantified using BCA assays (Pierce), normalized and then boiled with 4× Laemmli sampling buffer in 95° C. for 5 mins. Samples were resolved in 10% polyacrylamide gel (Biorad) and then transferred onto PVDF membrane (Biorad) and blocked with blocking buffer (5% bovine serum albumin (BSA) in Tris-buffered saline with 0.1% Tween 20 (TBST)) for 1 h. Membrane was washed in TBST, followed by incubation with corresponding primary antibodies (diluted 1:1000 in 5% BSA/milk in TBST with 1% NaN3) overnight at 4° C. […]
The effects of CL16 treatment on cell cycle checkpoint proteins were investigated with immunoblotting of the cell cycle checkpoint proteins in SW620 and HT29 cells after CL16 treatment for 24 h. […] Caspase- 3/7 Green Detection Reagent was used to study apoptosis in HCT116 cells treated with Rhosin by confocal fluorescence imaging. […]

orthotopic SL4 CRC = test: Immunocompetent orthotopic mouse CRC model (SL4 intracecal); type: in vivo
Excerpt: FIG. 13B is a graph showing the weight of tumors from the mice treated with vehicle (n=7) or CL16 (n=8) at the end point of the investigation of CL16 treatment. FIGS. 13C-13H are graphs showing the scores of the immunohistochemistry staining of CD3 (FIG. 13C), CD4 (FIG. 13D), CD8 (FIG. 13E), Ki67 (FIG. 13F), cleaved caspase-3 (FIG. 13G) and VEGFR2 (FIG. 13H) on tumor tissues from the vehicle- or CL16-treated mice, FIG. 131 is a graph showing the changes in the body weight of mice with orthotopic SL4 CRC model treated with solvent vehicle or CL16 through i.p. injection. Antitumor effects of CL16 in an immunocompetent, orthotopic mouse CRC model, which was established by the inoculation of mouse CRC cells, SL4, intracecally were examined (FIG. 20). […] Immunohistochemistry staining of CD3, CD4, CD8, Ki67 was conducted, with cleaved caspase-3 and VEGFR2 on tumor tissues from the vehicle- or CL16-treated mice. […] To the best of our knowledge, this is the first reported study showing an increase in immunity through RhoA inhibition in CRC cells by a small molecule compound.

RhoA [2] = target: T1, RhoA (Homo sapiens, UniProt P61586); test: GDP-GTP exchange assay (BODIPY-GTP); type: biochemical; parameters: purchased ab101594; details: fluorescence-based exchange assay
T1 sequence (P61586 whole entry): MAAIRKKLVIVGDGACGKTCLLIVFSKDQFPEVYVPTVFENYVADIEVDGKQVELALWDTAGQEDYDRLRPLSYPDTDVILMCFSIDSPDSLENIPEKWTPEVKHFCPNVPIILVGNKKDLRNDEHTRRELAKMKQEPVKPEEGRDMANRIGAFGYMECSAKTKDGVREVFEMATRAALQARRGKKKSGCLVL
Description: Recombinant human RhoA protein (0.2 μg; ab101594) was incubated with GDP (50 nM) in 100 μL of GTP-exchange buffer (20 mM HEPES, 150 mM NaCl, 5 mM MgCl2, pH 7.4) at room temperature for 1 h. CL16 or solvent control was then added to the solution mixture and incubated at room temperature for another hour. For self-exchange assay, BODIPY-GTP (100 nM) was added to the solution and the fluorescence from plate was measured every 30 s. For LARG-mediated GDP-to-GTP exchange, BODIPY-GTP (100 nM) and LARG DH-PH protein (30 nM) were added to the solution mixture and the fluorescence from plate was measured every 30 s. BODIPY-GTP was excited at 477±14 nm and its fluorescence was measured at 525±30 nm using a plate reader (Clariostar).

RhoA [3] = target: T1, RhoA; test: RhoA-GTP rhotekin pull-down in HT29 cells, complete medium; type: cell-based; parameters: endogenous in cells; host or cells: HCT116, HT29; details: HT29, complete medium 24 h
Description: RhoA Pull-Down Activation Assay Biochem Kit (#BK036) was purchased from Cytoskeleton. According to the manufacturer's protocol, total cell lysate (0.5 mg/mL; 300 μL) was added to 7.5 μL of Rhotekin-Rho Binding Domain beads in 0.6 mL tubes. The solution mixture was incubated at 4° C. on an end-to-end rotator for 1 hour. Beads were washed with 500 μL of washing buffer once, then centrifuged at 5000g for 3 min and the supernatant was discarded. RhoA-GTP was then eluted in 2× laemmli buffer and resolved in 10% SDS-PAGE.
GTP loading onto RhoA is critical for the protein activation and mediating downstream signals. In view of the inhibitions of GDP-to-GTP exchange of RhoA by CL16 in vitro as discussed above, effects of CL16 on RhoA biology in colorectal cancer cells were examined. In the serum starvation-re-stimulation experiment, HCT116 cells were grown in serum-free medium with CL16, Rhosin or solvent control for 24 h, followed by stimulation with 10% FBS for 10 min. The cells were then lysed and the RhoA activity was assayed by the level of RhoA-GTP, which is the active form of RhoA. […] HT29 cells were incubated with solvent vehicle, CL16 or Rhosin in complete medium for 24 h. […] Confocal fluorescence images from HCT116 and HT29 cells expressing FRET RhoA-biosensor in the serum starvation-restimulation experiment were taken.

- GDP-to-GTP self-exchange (RhoA [2]): significant decreases
- LARG-mediated GDP-to-GTP exchange (RhoA [2]): significant decreases
- RhoA activity (RhoA-GTP) (RhoA [3]): specific inhibition of RhoA activity
Compound: O=C(CCl)N1N=C(c2cc3ccccc3o2)CC1c1ccco1 (stereo not drawn) [CL16]
- cyclin A2 and cyclin B1 levels [1]: no significant changes
- p21 and p27 protein levels [1]: increase in p21 and p27 protein levels
- body weight (orthotopic SL4 CRC; i.p. injection): no significant changes in the body weight
- tumor weight (orthotopic SL4 CRC; i.p. injection, end point): significantly lower tumor weight
- organ damage in kidney tissue (orthotopic SL4 CRC; treated mice): no organ damages in the kidney tissue
- Ki67 in tumor tissues (orthotopic SL4 CRC; treated vs vehicle): decrease in Ki67
- cleaved caspase-3 immunohistochemistry in tumor tissues (orthotopic SL4 CRC; treated vs vehicle): elevated level
- CD3 immunohistochemistry of tumor tissues (orthotopic SL4 CRC; tumor tissues): increases
- CD4 immunohistochemistry of tumor tissues (orthotopic SL4 CRC; tumor tissues): increases
- CD8 immunohistochemistry of tumor tissues (orthotopic SL4 CRC; tumor tissues): increases
- VEGFR2 level, immunohistochemistry (orthotopic SL4 CRC; tumor tissues): decrease in VEGFR2 level
- tumor metastasis to liver (orthotopic SL4 CRC; vs control mice): prohibited the tumor metastasis
